Test results: patent publication US4673690A, “Acylated enamides and pharmaceutical compositions containing them” (priority 1982, dated 1987)

Tests used:
[1] = tested on: cytochrome P450; experiment: Toxicity of doxorubicin in vivo: content of cytochrome P450 in the liver; parameters: species or system rats
Protocol: (§1) On the other hand the drop in benzo(a)pyrene hydroxylase activity is no more than 20% and the decrease in aldrin mono-oxygenase activity is reduced to 40%.
(§2) A single dose (10 mg/kg) of a composition containing equal amounts by weight of doxorubicin and of para-(methoxyphenylacetyl)-dehydroalanine was injected into rats. A 60% increase in the minimum content of cytochrome P450, a 20% increase in the benzo(a)pyrene hydroxylase activity and a 5% decrease in the aldrin mono-oxygenase activity were observed.

[2] = tested on: benzo(a)pyrene hydroxylase; experiment: Toxicity of doxorubicin in vivo: benzo(a)pyrene hydroxylase activity in the liver; parameters: species or system rats
Protocol: as §1, §2

[3] = tested on: aldrin mono-oxygenase; experiment: Toxicity of doxorubicin in vivo: aldrin mono-oxygenase activity in the liver; parameters: species or system rats; conditions: rat
Protocol: as §1, §2

[4] = tested on: L311 leukaemia cells; experiment: Survival of rats inoculated with L311 leukaemia cells (Example 6); type: in vivo, LOU/2 strain; conditions: doxorubicin alone, intraperitoneal
Protocol: A pharmaceutical composition is prepared by mixing 4 g of para-(methoxyphenylacetyl)-dehydroalanine obtained according to Example 1 and 0.2 g of doxorubicin.
One million L311 leukaemia cells are injected intraperitoneally into a group of six rats, LOU/2 strain, the mean body weight of the rats being 160 g. L311 leukaemia is a tumour transplantable in rats of strain LOU/2, the tumour being described in the article by C. Deckers, F. Mare, L. Deckers-Passeu and A. Trouet, Adriamycin Review, Part I, 1973, pages 79 to 86.
48 hours after this injection the pharmaceutical composition described above is administered to the rats, again intraperitoneally, in an amount of 105 mg per kg of rat.
By way of comparison, a group of twelve similar rats to which one million L311 leukaemia cells have also been administered is subjected solely to intraperitoneal administration of doxorubicin 48 hours after the administration of the L311 leukaemia cells, and a group of twelve similar rats to which one million L311 leukaemia cells have also been administered is given no subsequent treatment whatsoever.

[5] = tested on: Taper Liver Tumor cancer cells; experiment: Survival of mice inoculated with Taper Liver Tumor cells (Example 2); type: in vivo; conditions: cyclophosphamide alone, intraperitoneal, 48 hours after cancer cells
Protocol: A pharmaceutical composition is prepared by mixing 4 g of para-(methoxyphenylacetyl)-dehydroalanine obtained according to Example 1 and 3.2 g of cyclophosphamide.
One million "Taper Liver Tumor" cancer cells are injected intraperitoneally into a group of 10 mice each weighing about 30 g. 48 hours after this injection, the pharmaceutical composition described above is administered again intraperitoneally, in an amount of 180 mg per kg of mouse.
By way of comparison, a group of 10 similar mice to which likewise one million "Taper Liver Tumor" cancer cells have been administered is subjected solely to administration of cyclophosphamide, by intraperitoneal injection, 48 hours after administration of the cancer cells, and a group of 10 other similar mice, to which, again, one million "Taper Liver Tumor" cancer cells have been administered is not subjected to any further treatment whatsoever.

[6] = tested on: Taper Liver Tumor cancer cells; experiment: Taper Liver Tumor in mice, variation of the amount of S 86 (Example 3); type: in vivo, NMRI strain; conditions: cyclophosphamide 80 mg/kg alone, i.p.
Protocol: (§3) One million "Taper Liver Tumor" cancer cells are injected intraperitoneally into groups of twelve adult male mice, NMRI strain, the mice having a body weight of about 30 grams. 48 hours after this injection various pharmaceutical compositions according to the invention are administered, again intraperitoneally, to the mice, the amount of para-(methoxyphenylacetyl)-dehydroalanine present in the composition administered being varied, and compositions only containing cyclophosphamide also beino administered.
(§4) Thereafter, three parameters are measured:
(a) the variations of the mean weight of the mice on the fifth day after inoculation of the cancer tumour (V.M.W.)
(§5) (b) the median survival of 12 mice treated with a pharmaceutical composition according to the invention or treated with cyclophosphamide alone (M.S.)
(c) the prolongation of survival of the mice treated with a composition according to the invention relative to comparison mice treated with cyclophosphamide alone (P.S.).

[7] = tested on: Taper Liver Tumor cancer cells; experiment: Taper Liver Tumor in mice, variation of the amount of cyclophosphamide (Example 4); type: in vivo, NMRI strain; conditions: i.p.
Protocol: as §3, with “cyclophosphamide” for “para-(methoxyphenylacetyl)-dehydroalanine”, “being” for “beino”
as §4
(a) the variation of the mean weight of the mice on the fifth day after inoculation of the cancer tumour (V.M.W.)
as §5
(c) the prolongation of survival of the mice treated with a composition according to the invention relative to comparison mice treated with the same dose of cyclophosphamide (P.S).

[8] = Lethal dose (LD50) in the mouse; conditions: in vivo
Excerpt: The results obtained are listed in the table below, the para-(methoxyphenylacetyl)-dehydroalanine being referred to by the code S 86.

[9] = Solubility; type: physicochemical
[10] = single dose of doxorubicin 10 mg/kg, subcutaneous, rat liver
[11] = cyclophosphamide 80 mg/kg alone
[12] = cyclophosphamide 180 mg/kg alone
[13] = cyclophosphamide 360 mg/kg alone
[14] = cyclophosphamide 450 mg/kg alone
[15] = cyclophosphamide 540 mg/kg alone

## NCCS [cysteamine]
[1]; rat, in vivo
  protection against the effect of doxorubicin on the level of cytochrome P450: does not protect
[2]; rat, in vivo
  drop in benzo(a)pyrene hydroxylase activity: no more than 20%
[3]
  decrease in aldrin mono-oxygenase activity: 40%

## COc1cccc2c1C(=O)c1c(O)c3c(c(O)c1C2=O)C[C@@](O)(C(=O)CO)C[C@@H]3O[C@H]1C[C@H](N)[C@H](O)[C@H](C)O1 [doxorubicin]
[1]; [10]
  reduction in the minimum content of cytochrome P450: 20%
[2]; [10]
  benzo(a)pyrene hydroxylase activity (in words): a drop in benzo(a)pyrene hydroxylase activity
[4]
  first death after administration of the leukaemia cells: sixteen
[4]; 48 hours after leukaemia cells
  mean length of survival after administration of the leukaemia cells: 27.6 days

## O=P1(N(CCCl)CCCl)NCCCO1 (stereo not shown) [Cyclophosphamide, cyclophosphamide]
[5]
  all die between (day of death): twenty-second day and the twenty-fifth day
[6]
  median survival (M.S.): 24 days
  variation of the mean weight of the mice on the fifth day (V.M.W.): -1
[7]; [11]
  median survival (M.S.): 21 days
  variation of the mean weight of the mice on the fifth day (V.M.W.): -2.2
[7]; [12]
  median survival (M.S.): 23 days
  variation of the mean weight of the mice on the fifth day (V.M.W.): -4.4
[7]; [13]
  median survival (M.S.): 31 days
  variation of the mean weight of the mice on the fifth day (V.M.W.): -6.6
[7]; [14]
  median survival (M.S.): 20 days
  variation of the mean weight of the mice on the fifth day (V.M.W.): -14
[7]; [15]
  median survival (M.S.): 12 days
  variation of the mean weight of the mice on the fifth day (V.M.W.): -18.6

## C=C(NC(=O)Cc1ccc(OC)cc1)C(=O)O [S 86, para-(methoxyphenylacetyl)-dehydroalanine]
[8]
  LD50: > 400 mg/kg
[9]
  solubility of the product: low solubility
